From patent publication US10231954B2, “Neurodegenerative therapies” (LYTIX BIOPHARMA AS, priority 2014, dated 2019)

How the values were obtained:
JAK2 = JAK2 (Homo sapiens, UniProt O60674); experiment: Kinase profiling JAK2; assay type: biochemical; details: 100 micromolar inhibitor concentration, 100 is no change; for remaining activity at 100 µM: read-out: residual kinase activity, JAK2
Source text: (§1) Any value less that 25 is considered to be highly significant inhibition.

PKA = PKA (Homo sapiens, UniProt P17612); experiment: Kinase profiling PKA; assay type: biochemical; details: 100 micromolar inhibitor concentration, 100 is no change; for remaining activity at 100 µM: read-out: residual kinase activity, PKA
Source text: as §1

ROCK 2 = ROCK 2 (Homo sapiens, UniProt O75116); experiment: Kinase profiling ROCK 2; assay type: biochemical; details: 100 micromolar inhibitor concentration, 100 is no change; for remaining activity at 100 µM: read-out: residual kinase activity, ROCK 2
Source text: as §1

EPH-A2 = EPH-A2 (Homo sapiens, UniProt P29317); experiment: Kinase profiling EPH-A2; assay type: biochemical; details: 100 micromolar inhibitor concentration, 100 is no change; for remaining activity at 100 µM: read-out: residual kinase activity, EPH-A2
Source text: as §1

PIM1 = PIM1 (Homo sapiens, UniProt P11309); experiment: Kinase profiling PIM1; assay type: biochemical; details: 100 micromolar inhibitor concentration, 100 is no change; for remaining activity at 100 µM: read-out: residual kinase activity, PIM1
Source text: as §1

PKCa = PKCa (Homo sapiens, UniProt P17252); experiment: Kinase profiling PKCa; assay type: biochemical; details: 100 micromolar inhibitor concentration, 100 is no change; for remaining activity at 100 µM: read-out: residual kinase activity, PKCa
Source text: as §1

p38g MAPK = biological target: T1, p38g MAPK (Homo sapiens, UniProt P53778); experiment: Kinase profiling p38g MAPK; assay type: biochemical; details: 100 micromolar inhibitor concentration, 100 is no change; for remaining activity at 100 µM: read-out: residual kinase activity, p38g MAPK
T1 sequence (P53778 1-367): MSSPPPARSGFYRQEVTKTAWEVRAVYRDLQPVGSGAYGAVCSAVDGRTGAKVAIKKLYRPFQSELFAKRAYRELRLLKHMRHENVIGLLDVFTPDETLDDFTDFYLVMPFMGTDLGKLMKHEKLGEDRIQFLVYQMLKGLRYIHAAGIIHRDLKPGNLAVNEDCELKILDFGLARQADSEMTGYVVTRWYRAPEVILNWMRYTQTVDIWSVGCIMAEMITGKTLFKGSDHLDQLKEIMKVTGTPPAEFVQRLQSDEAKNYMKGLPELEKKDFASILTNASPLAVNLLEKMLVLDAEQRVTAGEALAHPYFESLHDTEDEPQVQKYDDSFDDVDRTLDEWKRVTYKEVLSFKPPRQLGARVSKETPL
Source text: as §1

TAK1 = biological target: T2, TAK1 (Homo sapiens, UniProt O43318); experiment: Kinase profiling TAK1; assay type: biochemical; details: 100 micromolar inhibitor concentration, 100 is no change; for remaining activity at 100 µM: read-out: residual kinase activity, TAK1
T2 sequence (O43318 1-303 limits assumed): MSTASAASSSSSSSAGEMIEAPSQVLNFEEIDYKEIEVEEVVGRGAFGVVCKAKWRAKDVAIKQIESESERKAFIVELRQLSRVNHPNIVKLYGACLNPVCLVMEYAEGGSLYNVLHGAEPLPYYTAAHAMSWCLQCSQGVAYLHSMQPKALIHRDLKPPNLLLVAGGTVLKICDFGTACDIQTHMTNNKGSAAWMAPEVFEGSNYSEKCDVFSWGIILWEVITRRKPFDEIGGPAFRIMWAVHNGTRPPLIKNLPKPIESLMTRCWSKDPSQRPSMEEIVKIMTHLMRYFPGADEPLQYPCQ
T2 sequence (Q15750 437-504 partner limits assumed): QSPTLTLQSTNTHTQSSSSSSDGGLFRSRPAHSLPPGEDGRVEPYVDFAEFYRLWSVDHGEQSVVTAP
Source text: as §1

IRAK4 = biological target: T3, IRAK4 (Homo sapiens, UniProt Q9NWZ3); experiment: Kinase profiling IRAK4; assay type: biochemical; details: 100 micromolar inhibitor concentration, 100 is no change; for remaining activity at 100 µM: read-out: residual kinase activity, IRAK4
T3 sequence (Q9NWZ3 1-460): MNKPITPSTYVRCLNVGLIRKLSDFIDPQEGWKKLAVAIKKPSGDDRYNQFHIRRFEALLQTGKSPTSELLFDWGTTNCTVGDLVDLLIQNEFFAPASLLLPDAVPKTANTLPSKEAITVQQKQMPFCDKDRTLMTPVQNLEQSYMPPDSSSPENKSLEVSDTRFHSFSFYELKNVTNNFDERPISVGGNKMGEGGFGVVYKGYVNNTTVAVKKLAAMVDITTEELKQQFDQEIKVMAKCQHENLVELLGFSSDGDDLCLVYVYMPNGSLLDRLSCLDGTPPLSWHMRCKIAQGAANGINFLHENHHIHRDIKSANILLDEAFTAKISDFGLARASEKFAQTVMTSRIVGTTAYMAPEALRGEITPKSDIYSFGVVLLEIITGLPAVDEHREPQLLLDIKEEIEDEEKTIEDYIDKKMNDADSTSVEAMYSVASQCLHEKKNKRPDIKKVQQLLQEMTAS
Source text: as §1

p38a MAPK = p38a MAPK (Homo sapiens, UniProt Q16539); experiment: Kinase profiling p38a MAPK; assay type: biochemical; details: 100 micromolar inhibitor concentration, 100 is no change; for remaining activity at 100 µM: read-out: residual kinase activity, p38a MAPK
Source text: as §1

PKD1 = biological target: T4, PKD1 (Homo sapiens, UniProt Q15139); experiment: Kinase profiling PKD1; assay type: biochemical; details: 100 micromolar inhibitor concentration, 100 is no change; for remaining activity at 100 µM: read-out: residual kinase activity, PKD1
T4 sequence (Q15139 1-912): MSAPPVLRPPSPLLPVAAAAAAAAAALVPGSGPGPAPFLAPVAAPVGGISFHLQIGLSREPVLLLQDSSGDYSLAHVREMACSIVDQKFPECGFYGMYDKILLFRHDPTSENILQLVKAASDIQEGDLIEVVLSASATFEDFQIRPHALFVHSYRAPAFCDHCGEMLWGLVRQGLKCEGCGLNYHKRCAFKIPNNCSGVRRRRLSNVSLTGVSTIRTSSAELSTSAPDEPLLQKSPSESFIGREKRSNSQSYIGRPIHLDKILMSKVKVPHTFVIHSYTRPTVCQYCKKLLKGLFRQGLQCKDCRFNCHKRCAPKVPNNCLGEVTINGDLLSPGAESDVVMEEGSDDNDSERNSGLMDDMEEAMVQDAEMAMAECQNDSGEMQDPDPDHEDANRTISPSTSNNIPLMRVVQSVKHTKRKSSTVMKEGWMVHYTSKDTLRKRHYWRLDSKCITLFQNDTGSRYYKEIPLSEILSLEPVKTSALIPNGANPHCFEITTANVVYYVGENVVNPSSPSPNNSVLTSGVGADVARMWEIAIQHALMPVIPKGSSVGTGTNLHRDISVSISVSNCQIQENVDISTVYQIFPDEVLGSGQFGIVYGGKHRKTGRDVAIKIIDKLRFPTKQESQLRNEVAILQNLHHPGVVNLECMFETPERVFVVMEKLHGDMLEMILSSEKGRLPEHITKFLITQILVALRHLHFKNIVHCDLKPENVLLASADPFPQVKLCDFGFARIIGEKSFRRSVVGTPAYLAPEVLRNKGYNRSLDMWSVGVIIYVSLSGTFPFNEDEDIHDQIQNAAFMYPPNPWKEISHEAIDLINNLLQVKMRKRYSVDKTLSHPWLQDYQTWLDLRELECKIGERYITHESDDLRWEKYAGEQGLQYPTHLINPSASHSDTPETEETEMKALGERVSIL
Source text: as §1

AMPK (hum) = experiment: Kinase profiling AMPK (hum); assay type: biochemical, human; details: 100 micromolar inhibitor concentration; 100 is no change
Source text: as §1

RIPK2 = RIPK2 (Homo sapiens, UniProt O43353); experiment: Kinase profiling RIPK2; assay type: biochemical; details: 100 micromolar inhibitor concentration, 100 is no change; for remaining activity at 100 µM: read-out: residual kinase activity, RIPK2
Source text: as §1

ROCK 2, sequence (O75116 whole entry, species assumed): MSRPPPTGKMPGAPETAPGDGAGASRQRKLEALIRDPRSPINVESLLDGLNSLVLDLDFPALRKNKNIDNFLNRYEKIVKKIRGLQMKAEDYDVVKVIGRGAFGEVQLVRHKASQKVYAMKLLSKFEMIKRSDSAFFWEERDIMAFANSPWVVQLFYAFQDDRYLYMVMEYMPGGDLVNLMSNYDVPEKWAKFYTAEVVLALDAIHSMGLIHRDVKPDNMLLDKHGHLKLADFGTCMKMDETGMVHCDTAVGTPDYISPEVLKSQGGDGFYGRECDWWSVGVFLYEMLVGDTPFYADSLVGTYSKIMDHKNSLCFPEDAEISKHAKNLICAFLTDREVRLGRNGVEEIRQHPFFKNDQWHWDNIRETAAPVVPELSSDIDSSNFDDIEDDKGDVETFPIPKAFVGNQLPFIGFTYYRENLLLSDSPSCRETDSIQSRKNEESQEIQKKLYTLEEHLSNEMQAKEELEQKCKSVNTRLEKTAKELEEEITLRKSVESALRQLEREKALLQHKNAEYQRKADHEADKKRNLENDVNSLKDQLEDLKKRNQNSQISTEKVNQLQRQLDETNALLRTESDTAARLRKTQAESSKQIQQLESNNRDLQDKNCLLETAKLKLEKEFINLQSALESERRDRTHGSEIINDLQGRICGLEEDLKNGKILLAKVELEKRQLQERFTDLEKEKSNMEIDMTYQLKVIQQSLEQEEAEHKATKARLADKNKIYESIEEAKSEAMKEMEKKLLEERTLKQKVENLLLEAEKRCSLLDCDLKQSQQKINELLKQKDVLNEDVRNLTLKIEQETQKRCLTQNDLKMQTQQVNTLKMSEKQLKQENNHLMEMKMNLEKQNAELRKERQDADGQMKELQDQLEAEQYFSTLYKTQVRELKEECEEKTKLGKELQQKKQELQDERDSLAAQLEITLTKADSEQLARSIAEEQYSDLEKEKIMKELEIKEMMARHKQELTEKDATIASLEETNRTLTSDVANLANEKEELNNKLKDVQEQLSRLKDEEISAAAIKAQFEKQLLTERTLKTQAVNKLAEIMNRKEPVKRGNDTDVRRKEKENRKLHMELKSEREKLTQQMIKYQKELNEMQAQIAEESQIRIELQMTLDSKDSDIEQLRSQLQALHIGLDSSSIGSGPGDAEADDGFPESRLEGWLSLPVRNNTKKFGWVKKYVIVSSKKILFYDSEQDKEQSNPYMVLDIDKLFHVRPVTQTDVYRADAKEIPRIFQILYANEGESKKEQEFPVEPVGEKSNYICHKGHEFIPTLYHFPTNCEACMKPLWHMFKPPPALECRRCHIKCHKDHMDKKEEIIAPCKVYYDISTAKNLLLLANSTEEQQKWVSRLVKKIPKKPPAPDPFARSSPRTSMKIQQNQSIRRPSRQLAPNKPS
EPH-A2, sequence (P29317 24-976, species assumed): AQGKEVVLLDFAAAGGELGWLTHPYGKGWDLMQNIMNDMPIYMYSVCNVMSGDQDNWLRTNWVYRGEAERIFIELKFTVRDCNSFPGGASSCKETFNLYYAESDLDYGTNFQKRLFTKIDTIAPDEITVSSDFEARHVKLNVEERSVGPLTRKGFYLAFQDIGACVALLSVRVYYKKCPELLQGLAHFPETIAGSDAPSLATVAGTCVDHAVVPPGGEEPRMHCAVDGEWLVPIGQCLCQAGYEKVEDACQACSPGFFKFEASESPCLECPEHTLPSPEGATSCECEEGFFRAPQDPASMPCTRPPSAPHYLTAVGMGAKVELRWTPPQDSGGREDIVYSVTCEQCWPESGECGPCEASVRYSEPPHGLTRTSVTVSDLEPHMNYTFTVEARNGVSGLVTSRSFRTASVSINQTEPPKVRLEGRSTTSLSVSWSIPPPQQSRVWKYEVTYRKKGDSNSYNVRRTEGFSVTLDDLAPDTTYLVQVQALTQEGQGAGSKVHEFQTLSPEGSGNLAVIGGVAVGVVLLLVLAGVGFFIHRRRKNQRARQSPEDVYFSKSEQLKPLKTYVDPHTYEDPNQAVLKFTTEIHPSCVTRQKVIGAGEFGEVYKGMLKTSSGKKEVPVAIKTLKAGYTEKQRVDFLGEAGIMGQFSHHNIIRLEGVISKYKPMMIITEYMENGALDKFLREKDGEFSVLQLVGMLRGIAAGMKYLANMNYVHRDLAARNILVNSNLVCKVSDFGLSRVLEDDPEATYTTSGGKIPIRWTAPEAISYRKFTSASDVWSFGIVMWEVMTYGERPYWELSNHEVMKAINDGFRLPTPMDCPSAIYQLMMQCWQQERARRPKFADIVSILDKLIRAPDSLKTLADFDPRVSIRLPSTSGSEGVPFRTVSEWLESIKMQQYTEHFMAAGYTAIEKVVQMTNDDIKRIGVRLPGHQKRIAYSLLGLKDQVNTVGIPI
PIM1, sequence (P11309 whole entry, species assumed): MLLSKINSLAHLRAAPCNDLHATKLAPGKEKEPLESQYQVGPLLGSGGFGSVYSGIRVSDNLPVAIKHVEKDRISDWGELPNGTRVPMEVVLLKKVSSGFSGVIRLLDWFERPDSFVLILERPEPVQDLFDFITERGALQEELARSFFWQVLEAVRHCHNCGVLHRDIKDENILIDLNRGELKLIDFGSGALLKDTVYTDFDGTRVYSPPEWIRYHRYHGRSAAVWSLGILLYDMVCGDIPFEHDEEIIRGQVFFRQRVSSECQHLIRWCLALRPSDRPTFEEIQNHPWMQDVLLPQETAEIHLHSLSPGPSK
RIPK2, sequence (O43353 whole entry, species assumed): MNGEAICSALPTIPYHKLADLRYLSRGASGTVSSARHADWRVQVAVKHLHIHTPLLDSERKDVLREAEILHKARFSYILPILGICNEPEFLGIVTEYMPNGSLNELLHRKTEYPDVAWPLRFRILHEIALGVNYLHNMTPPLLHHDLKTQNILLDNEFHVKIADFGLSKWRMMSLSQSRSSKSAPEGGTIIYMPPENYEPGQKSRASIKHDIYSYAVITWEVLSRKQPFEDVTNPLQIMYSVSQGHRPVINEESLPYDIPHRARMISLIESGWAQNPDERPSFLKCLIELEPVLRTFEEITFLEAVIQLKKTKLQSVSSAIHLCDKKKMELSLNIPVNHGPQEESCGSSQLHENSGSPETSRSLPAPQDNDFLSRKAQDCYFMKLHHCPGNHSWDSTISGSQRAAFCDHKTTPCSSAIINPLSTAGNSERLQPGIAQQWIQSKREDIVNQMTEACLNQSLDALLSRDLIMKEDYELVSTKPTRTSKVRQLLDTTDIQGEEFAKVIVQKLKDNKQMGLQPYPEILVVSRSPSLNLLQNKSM
JAK2, sequence (O60674 whole entry, species assumed): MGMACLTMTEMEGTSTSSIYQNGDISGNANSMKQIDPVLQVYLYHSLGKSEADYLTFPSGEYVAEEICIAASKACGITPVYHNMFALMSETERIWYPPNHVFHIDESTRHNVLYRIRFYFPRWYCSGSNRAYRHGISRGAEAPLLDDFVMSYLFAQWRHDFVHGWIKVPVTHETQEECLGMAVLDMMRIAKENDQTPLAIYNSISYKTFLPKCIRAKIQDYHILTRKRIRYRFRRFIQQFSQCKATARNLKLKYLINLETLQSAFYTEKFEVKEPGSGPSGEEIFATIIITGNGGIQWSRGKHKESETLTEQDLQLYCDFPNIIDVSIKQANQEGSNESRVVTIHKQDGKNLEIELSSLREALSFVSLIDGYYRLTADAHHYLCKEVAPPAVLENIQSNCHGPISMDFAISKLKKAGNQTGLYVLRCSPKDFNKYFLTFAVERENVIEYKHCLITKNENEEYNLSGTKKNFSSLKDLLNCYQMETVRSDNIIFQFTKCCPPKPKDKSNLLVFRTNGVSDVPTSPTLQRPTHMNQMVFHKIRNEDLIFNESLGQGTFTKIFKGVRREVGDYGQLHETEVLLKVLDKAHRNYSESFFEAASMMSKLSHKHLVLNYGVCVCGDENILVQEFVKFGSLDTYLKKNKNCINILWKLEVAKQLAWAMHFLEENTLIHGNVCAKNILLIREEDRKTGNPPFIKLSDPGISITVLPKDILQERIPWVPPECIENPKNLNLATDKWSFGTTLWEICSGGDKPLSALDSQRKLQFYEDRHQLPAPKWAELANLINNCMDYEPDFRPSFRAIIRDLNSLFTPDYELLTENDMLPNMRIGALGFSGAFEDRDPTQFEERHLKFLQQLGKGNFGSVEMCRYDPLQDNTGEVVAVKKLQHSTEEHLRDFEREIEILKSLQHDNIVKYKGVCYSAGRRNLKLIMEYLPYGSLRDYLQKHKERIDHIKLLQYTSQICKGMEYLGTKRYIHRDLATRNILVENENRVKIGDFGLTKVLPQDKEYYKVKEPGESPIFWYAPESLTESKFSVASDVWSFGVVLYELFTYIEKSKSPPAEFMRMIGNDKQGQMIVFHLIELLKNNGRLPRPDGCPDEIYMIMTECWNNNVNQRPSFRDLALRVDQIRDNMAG

## CC(=O)Nc1nc2ccccc2s1 [Compound 03-32]
JAK2
  residual kinase activity, JAK2: 66
PKA
  residual kinase activity, PKA: 91
ROCK 2
  residual kinase activity, ROCK 2: 91
EPH-A2
  residual kinase activity, EPH-A2: 111
PIM1
  residual kinase activity, PIM1: 79
PKCa
  residual kinase activity, PKCa: 104
p38g MAPK
  residual kinase activity, p38g MAPK: 109
TAK1
  residual kinase activity, TAK1: 76
IRAK4
  residual kinase activity, IRAK4: 65
p38a MAPK
  residual kinase activity, p38a MAPK: 91
PKD1
  residual kinase activity, PKD1: 105
AMPK (hum)
  residual kinase activity, AMPK (hum): 86
RIPK2
  residual kinase activity, RIPK2: 70

## O=C(Nc1nc2cc(O)ccc2s1)c1cccnc1 [Compound 03-33]
JAK2
  residual kinase activity, JAK2: 70
PKA
  residual kinase activity, PKA: 102
ROCK 2
  residual kinase activity, ROCK 2: 53
EPH-A2
  residual kinase activity, EPH-A2: 108
PIM1
  residual kinase activity, PIM1: 25
PKCa
  residual kinase activity, PKCa: 105
p38g MAPK
  residual kinase activity, p38g MAPK: 85
TAK1
  residual kinase activity, TAK1: 73
IRAK4
  residual kinase activity, IRAK4: 42
p38a MAPK
  residual kinase activity, p38a MAPK: 105
PKD1
  residual kinase activity, PKD1: 71
AMPK (hum)
  residual kinase activity, AMPK (hum): 87
RIPK2
  residual kinase activity, RIPK2: 20

## O=C(Nc1nc2ccc(O)cc2s1)c1ccccc1 [Compound 03-60]
JAK2
  residual kinase activity, JAK2: 36
PKA
  residual kinase activity, PKA: 97
ROCK 2
  residual kinase activity, ROCK 2: 11
EPH-A2
  residual kinase activity, EPH-A2: 77
PIM1
  residual kinase activity, PIM1: 35
PKCa
  residual kinase activity, PKCa: 97
p38g MAPK
  residual kinase activity, p38g MAPK: 58
TAK1
  residual kinase activity, TAK1: 9
IRAK4
  residual kinase activity, IRAK4: 22
p38a MAPK
  residual kinase activity, p38a MAPK: 74
PKD1
  residual kinase activity, PKD1: 47
AMPK (hum)
  residual kinase activity, AMPK (hum): 27
RIPK2
  residual kinase activity, RIPK2: 12

## CC(=O)Nc1nc2cc(C(F)(F)F)ccc2s1 [Compound 03-73]
JAK2
  remaining activity at 100 µM: 96%
PKA
  remaining activity at 100 µM: 124%
ROCK 2
  remaining activity at 100 µM: 83%
EPH-A2
  remaining activity at 100 µM: 99%
PIM1
  remaining activity at 100 µM: 10%
PKCa
  remaining activity at 100 µM: 111%
p38g MAPK
  remaining activity at 100 µM: 93%
TAK1
  remaining activity at 100 µM: 45%
IRAK4
  remaining activity at 100 µM: 60%
p38a MAPK
  remaining activity at 100 µM: 92%
PKD1
  remaining activity at 100 µM: 83%
AMPK (hum)
  residual kinase activity, AMPK (hum): 62
RIPK2
  remaining activity at 100 µM: 48%

## CC(=O)Nc1nc2cc(C)ccc2s1 [Compound 03-76]
JAK2
  residual kinase activity, JAK2: 51
PKA
  residual kinase activity, PKA: 105
ROCK 2
  residual kinase activity, ROCK 2: 79
EPH-A2
  residual kinase activity, EPH-A2: 93
PIM1
  residual kinase activity, PIM1: 21
PKCa
  residual kinase activity, PKCa: 94
p38g MAPK
  residual kinase activity, p38g MAPK: 92
TAK1
  residual kinase activity, TAK1: 52
IRAK4
  residual kinase activity, IRAK4: 51
p38a MAPK
  residual kinase activity, p38a MAPK: 92
PKD1
  residual kinase activity, PKD1: 89
AMPK (hum)
  residual kinase activity, AMPK (hum): 69
RIPK2
  residual kinase activity, RIPK2: 60

## CC(=O)Nc1nc2cc(F)ccc2s1 [Compound 03-77]
JAK2
  remaining activity at 100 µM: 57%
PKA
  remaining activity at 100 µM: 95%
ROCK 2
  remaining activity at 100 µM: 37%
EPH-A2
  remaining activity at 100 µM: 106%
PIM1
  remaining activity at 100 µM: 19%
PKCa
  remaining activity at 100 µM: 101%
p38g MAPK
  remaining activity at 100 µM: 77%
TAK1
  remaining activity at 100 µM: 46%
IRAK4
  remaining activity at 100 µM: 43%
p38a MAPK
  remaining activity at 100 µM: 88%
PKD1
  remaining activity at 100 µM: 66%
AMPK (hum)
  residual kinase activity, AMPK (hum): 80
RIPK2
  remaining activity at 100 µM: 64%

## O=C(Nc1nc2ccc(O)cc2s1)c1ccncc1 [Compound 08-42]
JAK2
  residual kinase activity, JAK2: 50
PKA
  residual kinase activity, PKA: 91
ROCK 2
  residual kinase activity, ROCK 2: 43
EPH-A2
  residual kinase activity, EPH-A2: 77
PIM1
  residual kinase activity, PIM1: 59
PKCa
  residual kinase activity, PKCa: 81
p38g MAPK
  residual kinase activity, p38g MAPK: 87
TAK1
  residual kinase activity, TAK1: 25
IRAK4
  residual kinase activity, IRAK4: 42
p38a MAPK
  residual kinase activity, p38a MAPK: 99
PKD1
  residual kinase activity, PKD1: 63
AMPK (hum)
  residual kinase activity, AMPK (hum): 65
RIPK2
  residual kinase activity, RIPK2: 30

## O=C(Nc1nc2ccc(O)cc2s1)c1cccnc1 [Compound 08-44]
JAK2
  residual kinase activity, JAK2: 30
PKA
  residual kinase activity, PKA: 92
ROCK 2
  residual kinase activity, ROCK 2: 42
EPH-A2
  residual kinase activity, EPH-A2: 81
PIM1
  residual kinase activity, PIM1: 42
PKCa
  residual kinase activity, PKCa: 67
p38g MAPK
  residual kinase activity, p38g MAPK: 77
TAK1
  residual kinase activity, TAK1: 18
IRAK4
  residual kinase activity, IRAK4: 32
p38a MAPK
  residual kinase activity, p38a MAPK: 108
PKD1
  residual kinase activity, PKD1: 54
AMPK (hum)
  residual kinase activity, AMPK (hum): 55
RIPK2
  residual kinase activity, RIPK2: 21
